Laboratory results as given in PubChem BioAssay AID248 (DTP/NCI, 2004).
Inconclusive results and toxic doses are left out. Cut-off read from the data, not from the text of the source: active = T/C of 150% or more; inactive = T/C below 125%.

Tested on: L1210 leukemia ip in BDF1 mice, survival T/C
Test: NCI In Vivo Anticancer Drug Screen. Data for tumor model L1210 Leukemia (intraperitoneal) in B6D2F1 (BDF1) mice
Settings: endpoint: mean survival time, higher = longer survival
How it was run: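 Tumor was transplanted into mice, which were then dosed with test compound or vehicle alone. Survival was recorded for each group, and the treated figure was expressed relative to the control figure.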

[1] = dose: 100.0 mg/kg/injection, schedule: Q01DX009 (ip), vehicle: Klucel (hydroxypropylcellulose) (HPC)
[2] = dose: 100.0 mg/kg/injection, schedule: Q04DX003 (ip), vehicle: saline
[3] = dose: 200.0 mg/kg/injection, schedule: Q04DX003 (ip), vehicle: saline
[4] = dose: 400.0 mg/kg/injection, schedule: Q04DX003 (ip), vehicle: saline
[5] = dose: 50.0 mg/kg/injection, schedule: Q01DX001 (ip), vehicle: carboxymethylcellulose (CMC)
[6] = dose: 100.0 mg/kg/injection, schedule: Q01DX001 (ip), vehicle: carboxymethylcellulose (CMC)
[7] = dose: 200.0 mg/kg/injection, schedule: Q01DX001 (ip), vehicle: carboxymethylcellulose (CMC)
[8] = dose: 400.0 mg/kg/injection, schedule: Q01DX001 (ip), vehicle: carboxymethylcellulose (CMC)
[9] = dose: 100.0 mg/kg/injection, schedule: Q01DX009 (ip), vehicle: saline with Tween-80
[10] = dose: 200.0 mg/kg/injection, schedule: Q01DX009 (ip), vehicle: saline with Tween-80
[11] = dose: 100.0 mg/kg/injection, schedule: Q04DX003 (ip), vehicle: saline with Tween-80
[12] = dose: 200.0 mg/kg/injection, schedule: Q04DX003 (ip), vehicle: saline with Tween-80
[13] = dose: 400.0 mg/kg/injection, schedule: Q04DX003 (ip), vehicle: saline with Tween-80
[14] = dose: 100.0 mg/kg/injection, schedule: Q04DX003 (ip), vehicle: carboxymethylcellulose (CMC)
[15] = dose: 200.0 mg/kg/injection, schedule: Q04DX003 (ip), vehicle: carboxymethylcellulose (CMC)
[16] = dose: 100.0 mg/kg/injection, schedule: Q01DX001 (ip), vehicle: saline
[17] = dose: 200.0 mg/kg/injection, schedule: Q01DX001 (ip), vehicle: saline
[18] = dose: 400.0 mg/kg/injection, schedule: Q01DX001 (ip), vehicle: saline
[19] = dose: 100.0 mg/kg/injection, schedule: Q01DX009 (ip), vehicle: saline sonified

Measured: T/C

Clc1ccc(SSC(Cl)(Cl)Cl)cc1
inactive: dose: 25.0 mg/kg/injection, schedule: Q01DX009 (ip), vehicle: Klucel (hydroxypropylcellulose) (HPC) 98 % of control | dose: 50.0 mg/kg/injection, schedule: Q01DX009 (ip), vehicle: Klucel (hydroxypropylcellulose) (HPC) 88 % of control | [1] 93 % of control

Clc1ccc(/C=N\c2nn[nH]n2)c(Cl)c1 (tested in a mixture with another compound)
inactive: [2] 89 % of control | [3] 89 % of control | [4] 98 % of control

OCC(O)C1OC(c2ccccc2)OC1C(O)CO (stereo not given)
inactive: [2] 105 % of control | [3] 92 % of control | [4] 99 % of control

COc1c2ccccc2cc2ccccc12
inactive: dose: 50.0 mg/kg/injection, schedule: Q01DX009 (ip), vehicle: acetone 94 % of control | dose: 100.0 mg/kg/injection, schedule: Q01DX009 (ip), vehicle: acetone 92 % of control | dose: 200.0 mg/kg/injection, schedule: Q01DX009 (ip), vehicle: acetone 89 % of control

N#CC(Nc1c(N)nc(-c2ccccc2)nc1N)c1ccc(N(CCCl)CCCl)cc1 (stereo not given)
inactive: [5] 100 % of control | [6] 115 % of control | [7] 100 % of control | [8] 105 % of control

C=NN=C(NN=C)NN=C
inactive: dose: 15.0 mg/kg/injection, schedule: Q01DX Z (ip), vehicle: methylcellulose (MC) 105 % of control | dose: 30.0 mg/kg/injection, schedule: Q01DX Z (ip), vehicle: methylcellulose (MC) 114 % of control | dose: 60.0 mg/kg/injection, schedule: Q01DX Z (ip), vehicle: methylcellulose (MC) 97 % of control | dose: 120.0 mg/kg/injection, schedule: Q01DX Z (ip), vehicle: methylcellulose (MC) 104 % of control | dose: 120.0 mg/kg/injection, schedule: Q01DX Z (oral), vehicle: methylcellulose (MC) 104 % of control | dose: 480.0 mg/kg/injection, schedule: Q01DX Z (oral), vehicle: methylcellulose (MC) 93 % of control

CC(=O)O/C=C\c1ccccc1
inactive: [5] 104 % of control | [6] 98 % of control | [7] 107 % of control | [8] 98 % of control

CNC(=O)Nc1ccc(S(=O)(=O)Nc2nc(C)cc(C)n2)cc1
inactive: dose: 50.0 mg/kg/injection, schedule: Q01DX009 (ip), vehicle: saline with Tween-80 96 % of control | [9] 96 % of control | [10] 93 % of control

CC(=O)NNC(=O)c1ccccc1
inactive: [9] 101 % of control | dose: 100.0 mg/kg/injection, schedule: Q01DX009 (ip), vehicle: saline 106 % of control | [11] 106 % of control | [10] 109 % of control | dose: 200.0 mg/kg/injection, schedule: Q01DX009 (ip), vehicle: saline 113 % of control | [12] 108 % of control | [13] 101 % of control

CCOP(=O)(OC(C)CC)OC(C)CC (stereo not given)
inactive: [14] 93 % of control | [15] 87 % of control

CC(=O)SCC(CSC(C)=O)c1nncc2ccccc12
inactive: [16] 95 % of control

O=C1c2ccccc2-c2cc(Br)c(NC(=O)C(F)(F)F)cc21
inactive: [11] 108 % of control | [12] 105 % of control | [13] 100 % of control

CC(C)(N)COC(=O)c1ccccc1C(=O)O
inactive: [16] 91 % of control | [17] 96 % of control | [18] 94 % of control

NOCc1csc(N)n1
inactive: [16] 101 % of control | [17] 95 % of control | [18] 104 % of control

O=C(O)c1cscc1-c1c2ccccc2cc2ccccc12
inactive: [11] 88 % of control | [12] 91 % of control | [13] 88 % of control

O=C(CC(C(=O)c1ccccc1)N1CC1)c1ccccc1 (stereo not given)
inactive: dose: 50.0 mg/kg/injection, schedule: Q01DX009 (ip), vehicle: saline sonified 91 % of control | dose: 50.0 mg/kg/injection, schedule: Q04DX003 (ip), vehicle: saline sonified 96 % of control | [19] 94 % of control | dose: 100.0 mg/kg/injection, schedule: Q04DX003 (ip), vehicle: saline sonified 92 % of control | dose: 200.0 mg/kg/injection, schedule: Q04DX003 (ip), vehicle: saline sonified 97 % of control

CC(=O)N(c1ccccc1)c1nc(/C=N\NC(N)=S)cs1
inactive: [1] 105 % of control | dose: 200.0 mg/kg/injection, schedule: Q01DX009 (ip), vehicle: Klucel (hydroxypropylcellulose) (HPC) 106 % of control | dose: 400.0 mg/kg/injection, schedule: Q01DX009 (ip), vehicle: Klucel (hydroxypropylcellulose) (HPC) 100 % of control

O=C(O)c1cc(O)ccc1O
inactive: [11] 100 % of control | [12] 97 % of control

O=C1CC(Cc2n[nH]c3c2CCC3)CC(=O)N1
inactive: [6] 103 % of control | [14] 97 % of control | [7] 97 % of control | [15] 94 % of control | [8] 105 % of control | dose: 400.0 mg/kg/injection, schedule: Q04DX003 (ip), vehicle: carboxymethylcellulose (CMC) 101 % of control

COc1cc(Cl)ccc1NC(=O)Oc1ccc(C=O)cc1OC
inactive: dose: 100.0 mg/kg/injection, schedule: Q04DX002 (ip), vehicle: Klucel (hydroxypropylcellulose) (HPC) 101 % of control | dose: 200.0 mg/kg/injection, schedule: Q04DX002 (ip), vehicle: Klucel (hydroxypropylcellulose) (HPC) 90 % of control | dose: 400.0 mg/kg/injection, schedule: Q04DX002 (ip), vehicle: Klucel (hydroxypropylcellulose) (HPC) 93 % of control

O=C1OC2(CCCCC2)c2ccccc21
inactive: dose: 100.0 mg/kg/injection, schedule: Q04DX003 (ip), vehicle: Klucel (hydroxypropylcellulose) (HPC) 105 % of control | dose: 200.0 mg/kg/injection, schedule: Q04DX003 (ip), vehicle: Klucel (hydroxypropylcellulose) (HPC) 95 % of control | dose: 400.0 mg/kg/injection, schedule: Q04DX003 (ip), vehicle: Klucel (hydroxypropylcellulose) (HPC) 105 % of control

CC(C)C(CCCC(=O)O)C(=O)O (stereo not given)
inactive: [5] 96 % of control | [6] 96 % of control | [7] 96 % of control

CC(=O)OC(Cc1nc2ccccc2s1)(C(F)(F)F)C(F)(F)F
inactive: dose: 3.13 mg/kg/injection, schedule: Q04DX002 (ip), vehicle: saline with Tween-80 97 % of control | dose: 6.25 mg/kg/injection, schedule: Q04DX002 (ip), vehicle: saline with Tween-80 91 % of control | dose: 12.5 mg/kg/injection, schedule: Q04DX002 (ip), vehicle: saline with Tween-80 97 % of control | dose: 25.0 mg/kg/injection, schedule: Q04DX002 (ip), vehicle: saline with Tween-80 94 % of control

O=S(=O)(O)c1ccc(CCCCCCl)cc1
inactive: [19] 107 % of control | [2] 95 % of control | dose: 200.0 mg/kg/injection, schedule: Q01DX009 (ip), vehicle: saline sonified 98 % of control | [3] 100 % of control | dose: 400.0 mg/kg/injection, schedule: Q01DX009 (ip), vehicle: saline sonified 101 % of control | [4] 96 % of control

Nc1[nH]c(=S)[nH]c(=O)c1N
inactive: dose: 12.0 mg/kg/injection, schedule: Q01DX009 (ip), vehicle: other 102 % of control | dose: 12.0 mg/kg/injection, schedule: Q04DX003 (ip), vehicle: saline 97 % of control | dose: 25.0 mg/kg/injection, schedule: Q01DX009 (ip), vehicle: other 102 % of control | dose: 25.0 mg/kg/injection, schedule: Q04DX003 (ip), vehicle: saline 104 % of control | dose: 50.0 mg/kg/injection, schedule: Q01DX009 (ip), vehicle: other 105 % of control | dose: 50.0 mg/kg/injection, schedule: Q04DX003 (ip), vehicle: saline 118 % of control | dose: 125.0 mg/kg/injection, schedule: Q01DX Z (ip), vehicle: methylcellulose (MC) 106 % of control | dose: 250.0 mg/kg/injection, schedule: Q01DX Z (ip), vehicle: methylcellulose (MC) 117 % of control

CC(=O)Nc1ccc(/C=N/NC(=S)Nc2cccc3cccnc23)cc1
inactive: [16] 92 % of control | [17] 97 % of control | [18] 97 % of control

NN1C(=O)c2ccccc2C1=O
inactive: [9] 100 % of control | [10] 95 % of control | dose: 400.0 mg/kg/injection, schedule: Q01DX009 (ip), vehicle: saline with Tween-80 92 % of control
